The record followed here is PubChem BioAssay AID330 (DTP/NCI, 2004).

This assay has as its system P388 leukemia ip, CD2F1 mice, survival T/C. Description: NCI In Vivo Anticancer Drug Screen. Data for tumor model P388 Leukemia (intraperitoneal) in CD2F1 (CDF1) mice. As to conditions: endpoint: median survival time, higher = longer survival. An outline of the steps:
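Mice carrying the transplanted tumor received test compound or vehicle. Survival was recorded in each group, and the value is the treated-group measurement divided by that of the vehicle-treated control group.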

Where “and” joins values, the source holds several entries; their conditions need not be identical. Equal values may be shown once. Inconclusive results and toxic doses are left out.

Regarding `O=P1(N(CCCl)CCCl)NCCCO1` (centres undefined), the T/C reads like this: (dose: 4.0 mg/kg/injection, schedule: Q01DX009 (ip), vehicle: saline) 116 % of control and 122 % of control; (dose: 6.25 mg/kg/injection, schedule: Q01DX009 (ip), vehicle: saline) 150 % of control and 151 % of control; (dose: 8.0 mg/kg/injection, schedule: Q01DX009 (ip), vehicle: saline) 150 % of control; (dose: 10.0 mg/kg/injection, schedule: Q04DX003 (iv), vehicle: saline) 119 % of control; (dose: 12.5 mg/kg/injection, schedule: Q01DX009 (ip), vehicle: saline) 153 % of control and 185 % of control and 192 % of control; (dose: 15.0 mg/kg/injection, schedule: Q04DX003 (ip), vehicle: saline) 150 % of control. Also, the T/C by setting is: (dose: 16.0 mg/kg/injection, schedule: Q01DX009 (ip), vehicle: saline) 183 % of control and 188 % of control; (dose: 16.2 mg/kg/injection, schedule: Q04DX003 (ip), vehicle: saline) 153 % of control; (dose: 20.0 mg/kg/injection, schedule: Q01DX009 (ip), vehicle: saline) 187 % of control; (dose: 20.0 mg/kg/injection, schedule: Q04DX003 (ip), vehicle: water) 164 % of control; (dose: 20.0 mg/kg/injection, schedule: Q04DX003 (iv), vehicle: saline) 158 % of control; (dose: 22.2 mg/kg/injection, schedule: Q01DX009 (ip), vehicle: saline) 213 % of control. For the same molecule, the T/C by setting is: (dose: 25.0 mg/kg/injection, schedule: Q04DX003 (ip), vehicle: water) 110 % of control; (dose: 27.0 mg/kg/injection, schedule: Q04DX003 (ip), vehicle: saline) 178 % of control; (dose: 28.8 mg/kg/injection, schedule: Q01DX005 (ip), vehicle: saline) 190 % of control; (dose: 30.0 mg/kg/injection, schedule: Q01DX010 (ip), vehicle: water) 272 % of control; (dose: 30.0 mg/kg/injection, schedule: Q04DX003 (ip), vehicle: saline) 195 % of control; (dose: 31.3 mg/kg/injection, schedule: Q01DX001 (iv), vehicle: saline) 174 % of control. In addition, the T/C (dose: 32.4 mg/kg/injection, schedule: Q04DX002 (ip), vehicle: saline) was 163 % of control and 178 % of control; the T/C (dose: 33.3 mg/kg/injection, schedule: Q01DX009 (ip), vehicle: saline) is 261 % of control; the T/C (dose: 36.0 mg/kg/injection, schedule: Q01DX009 (ip), vehicle: saline) is 258 % of control; the T/C (dose: 38.9 mg/kg/injection, schedule: Q04DX003 (ip), vehicle: saline) was 227 % of control; the T/C (dose: 40.0 mg/kg/injection, schedule: Q04DX003 (ip), vehicle: saline) was 197 % of control and 204 % of control; the T/C (dose: 40.0 mg/kg/injection, schedule: Q04DX003 (ip), vehicle: water) was 225 % of control. Moreover, the T/C is, setting by setting: (dose: 40.0 mg/kg/injection, schedule: Q04DX003 (iv), vehicle: saline) 203 % of control; (dose: 45.0 mg/kg/injection, schedule: Q01DX010 (ip), vehicle: water) 240 % of control; (dose: 45.0 mg/kg/injection, schedule: Q04DX003 (ip), vehicle: saline) 324 % of control; (dose: 48.0 mg/kg/injection, schedule: Q01DX005 (ip), vehicle: saline) 240 % of control; (dose: 48.0 mg/kg/injection, schedule: Q01DX009 (ip), vehicle: saline) 118 % of control; (dose: 50.0 mg/kg/injection, schedule: Q01DX001 (ip), vehicle: water) 157 % of control and 160 % of control. Besides, the T/C was 103 % of control (dose: 50.0 mg/kg/injection, schedule: Q01DX009 (ip), vehicle: water); 198 % of control and 214 % of control (dose: 50.0 mg/kg/injection, schedule: Q04DX003 (ip), vehicle: water); 209 % of control and 213 % of control (dose: 54.0 mg/kg/injection, schedule: Q04DX002 (ip), vehicle: saline); 99 % of control (dose: 60.0 mg/kg/injection, schedule: Q01DX009 (ip), vehicle: saline); 274 % of control (dose: 60.0 mg/kg/injection, schedule: Q04DX003 (ip), vehicle: saline); 220 % of control (dose: 62.5 mg/kg/injection, schedule: Q01DX001 (iv), vehicle: saline). Further, the T/C is 187 % of control and 194 % of control (dose: 64.0 mg/kg/injection, schedule: Q01DX009 (ip), vehicle: saline); 317 % of control (dose: 64.8 mg/kg/injection, schedule: Q04DX003 (ip), vehicle: saline); 225 % of control (dose: 70.0 mg/kg/injection, schedule: Q04DX003 (ip), vehicle: saline); 300 % of control (dose: 73.0 mg/kg/injection, schedule: Q04DX003 (ip), vehicle: saline); 157 % of control (dose: 75.0 mg/kg/injection, schedule: Q01DX009 (ip), vehicle: saline); 118 % of control (dose: 75.0 mg/kg/injection, schedule: Q01DX010 (ip), vehicle: water). The T/C reads like this: (dose: 75.0 mg/kg/injection, schedule: Q04DX003 (ip), vehicle: saline) 358 % of control; (dose: 80.0 mg/kg/injection, schedule: Q01DX001 (ip), vehicle: saline) 155 % of control; (dose: 80.0 mg/kg/injection, schedule: Q04DX003 (ip), vehicle: saline) 216 % of control and 284 % of control; (dose: 80.0 mg/kg/injection, schedule: Q04DX003 (ip), vehicle: water) 269 % of control; (dose: 80.0 mg/kg/injection, schedule: Q04DX003 (iv), vehicle: saline) 194 % of control; (dose: 90.0 mg/kg/injection, schedule: Q04DX002 (ip), vehicle: saline) 220 % of control and 228 % of control. The T/C was 199 % of control and 221 % of control (dose: 100.0 mg/kg/injection, schedule: Q01DX001 (ip), vehicle: water); 288 % of control and 324 % of control (dose: 100.0 mg/kg/injection, schedule: Q04DX003 (ip), vehicle: water); 152 % of control (dose: 108.0 mg/kg/injection, schedule: Q04DX003 (ip), vehicle: saline); 245 % of control (dose: 119.0 mg/kg/injection, schedule: Q01DX001 (ip), vehicle: saline); 350 % of control (dose: 125.0 mg/kg/injection, schedule: Q01DX001 (iv), vehicle: saline); 189 % of control and 196 % of control (dose: 125.0 mg/kg/injection, schedule: Q04DX003 (ip), vehicle: saline). Moreover, the T/C by setting is: (dose: 150.0 mg/kg/injection, schedule: Q04DX002 (ip), vehicle: saline) 394 % of control and 409 % of control; (dose: 150.0 mg/kg/injection, schedule: Q## X001 (ip), vehicle: saline) 111 % of control and 231 % of control and 260 % of control; (dose: 160.0 mg/kg/injection, schedule: Q01DX001 (ip), vehicle: saline) 114 % of control and 232 % of control; (dose: 165.0 mg/kg/injection, schedule: Q04DX003 (ip), vehicle: saline) 221 % of control; (dose: 180.0 mg/kg/injection, schedule: Q04DX003 (ip), vehicle: saline) 118 % of control; (dose: 200.0 mg/kg/injection, schedule: Q01DX001 (ip), vehicle: water) 281 % of control and 291 % of control. The T/C runs as follows: (dose: 250.0 mg/kg/injection, schedule: Q01DX001 (ip), vehicle: saline) 98 % of control; (dose: 250.0 mg/kg/injection, schedule: Q01DX001 (iv), vehicle: saline) 353 % of control; (dose: 320.0 mg/kg/injection, schedule: Q01DX001 (ip), vehicle: saline) 215 % of control and 252 % of control; (dose: 600.0 mg/kg/injection, schedule: Q01DX001 (ip), vehicle: water) 100 % of control.

In the case of `COc1cc(OC)c2c(=O)c3cc(OC)c(OC)cc3oc2c1`, the T/C by setting is: (dose: 8.3 mg/kg/injection, schedule: Q01DX009 (ip), vehicle: Klucel (hydroxypropylcellulose) (HPC)) 98 % of control; (dose: 16.5 mg/kg/injection, schedule: Q01DX009 (ip), vehicle: Klucel (hydroxypropylcellulose) (HPC)) 117 % of control; (dose: 33.0 mg/kg/injection, schedule: Q01DX009 (ip), vehicle: Klucel (hydroxypropylcellulose) (HPC)) 107 % of control; (dose: 66.0 mg/kg/injection, schedule: Q01DX009 (ip), vehicle: Klucel (hydroxypropylcellulose) (HPC)) 107 % of control.

On to `CC1(C)CC(NC(=O)CCl)CC(C)(C)N1O`, for which the T/C (dose: 50.0 mg/kg/injection, schedule: Q01DX009 (ip), vehicle: saline) was 93 % of control; the T/C (dose: 100.0 mg/kg/injection, schedule: Q01DX009 (ip), vehicle: saline) was 91 % of control; the T/C (dose: 200.0 mg/kg/injection, schedule: Q01DX009 (ip), vehicle: saline) was 102 % of control.

Turning to `Cc1[nH]c(=O)cc2c1[nH]c1ccccc12`, the T/C is 96 % of control (dose: 12.5 mg/kg/injection, schedule: Q01DX005 (ip), vehicle: Klucel (hydroxypropylcellulose) (HPC)); 100 % of control (dose: 50.0 mg/kg/injection, schedule: Q01DX005 (ip), vehicle: Klucel (hydroxypropylcellulose) (HPC)); 98 % of control (dose: 100.0 mg/kg/injection, schedule: Q01DX005 (ip), vehicle: Klucel (hydroxypropylcellulose) (HPC)).
